Laboratory results: patent US6077826A, “Synthetic macromolecular channel assembly for transport of chloride ions through epithelium useful in treating cystic fibrosis” (Kansas State University Research Foundation, priority 1998, dated 2000)

What was measured:
tetrameric channel = molecular target: T1, tetrameric channel (Homo sapiens, UniProt P23415); details: lipid bilayers; cited from earlier work
T1 construct: 9-amino acid carrier template (tethers four peptide copies)

M2GlyR-stimulated Isc = assay: Effect of Cl- transport inhibitors on M2GlyR-stimulated Isc in MDCK monolayers; format: cell-based, canine
[1] = tested on: C-K4 -M2GlyR-generated (SEQ ID NO: 7) ISC across MDCK monolayers; assay: Effect of Cl- transport inhibitors on C-K4-M2GlyR-generated Isc across MDCK monolayers; format: cell-based, canine; details: for fraction of stimulated current remaining: four monolayers
Procedure: Electrical measurements. MDCK cells (2.5×10^5) were plated on permeable supports (Snapwell, 12 mm dia.; Costar Corp), coated with a mixture of types I and III collagen (ICN, Costa Mesa, Ca.). The Snapwell supports were placed in a 6 well culture plate containing DME/F12+P/S and 1% FCS (0.4 mL in the upper part and 5 mL in the lower). MDCK monolayers were allowed to reach confluency and after 5 days of growth were mounted in Using chambers designed for cell culture (Costar). The position of the monolayer and the supporting membrane separated the apical and the basolateral compartments. Both sides of the monolayers were bathed in 5 mL of a Ringer's solution containing (in mM); 147 Na^+, 119 Cl^-, 20 HCO3^-, 6 alanine, 5 K^+, 5 acetate, 5 glucose, 4 lactate, 2.5 HPO4^- 1.2 Mg^+2, 1.2 SO4^-2 1 citrate, 0.5 butyric acid and 14 raffinose. The media in each half-chamber was circulated by a bubble-lift method with a gas mixture of 95% O2 /5% CO2 and maintained at 37° C. In experiments in which we removed chloride from the Ringer's solution, the molar equivalent of cyclamate was used.
The transepithelial voltage was measured using glass capillary tubes containing a plug of 5% agar in 3 M KCl and situated near each side of the cell layer. The glass tube was filled above the agar plug with 3 M KCl and Ag/AgCl electrodes were inserted into the KCI. Current electrodes consisted of a coil of platinum wire (30 gauge) located at the ends of each half-chamber. Transepithelial potential (Vtc); the short-circuitcurrent (Isc), the current necessary to clamp the voltage to zero; and the transepithelial resistance (Ftc) were measured at five minute intervals with a dual epithelial voltage clamp apparatus (Warner Instrument, Hamden, Conn.) as previously described in detail (Mangoo-Karimet al.; 1995). The average of the last two measurements in each period were used for comparison between pairs of monolayers and among each group.
In electrophysiological studies, niflumic acid, 5-nitro-2-(3-phenylpropylamino)-benzoate (NPPB, provided by SmithKline Beecham), diphenylamine-2-carboxylate (DPC, Fluka Chemika), and glibenclamide were dissolved in 100% ethanol. The maximal final concentration of ethanol, 0.5%, was without effect on Isc.
Effect of Cl^- channel blockers. We tested a variety of Cl^- channel blockers on the Isc generated by apical application of C-K4 -M2GlyR (SEQ ID NO: 7). […]. […] A negative change indicates a reduction in the current. The sensitivity sequence of the peptide-induced current to the Cl^- channel blockers was niflumic acid≥NPPB>DPC>glibenclamide>>>DIDS.

[2] = tested on: forskolin-stimulated current; details: apical DPC, previously published dose response; cited from earlier work
MDCK monolayers [3] = assay: Fluid secretion / fluid transport by MDCK monolayers (24 hr collection); details: 500 μM apical peptide or 10 μM basolateral forskolin, n = 12 (Table 6)
MDCK monolayers [4] = assay: Intracellular cAMP by radioimmunoassay in MDCK monolayers; format: cell-based, canine; details: 10 μM forskolin, 2 hrs
Procedure: Cyclic adenosine monophosphate measurements. Confluent monolayers of MDCK cells were incubated in defined media (1.7 mL apical and 2.5 mL basolateral) or defined media containing either 10 μM basolateral forskolin or 500 μM apical C-K4 -[…] (SEQ ID NO: 7) for two hours. Monolayers were rinsed in Ca^+2 -, Mg^+2 -tree phosphate buffered saline (PBS), then treated with 5% trichloroacetic acid (TCA) to deactivate endogenous phosphodiesterases. […] Intracellular cAMP remained in the aqueous phase. After the water and ether phases separated, the water phase was collected. Relative levels of intracellular cAMP were determined by radioimmunoassay (Biomedical Technology Inc, Stoughton, Mass.) using methods previously described (Krishna and Terranova; 1987).

[5] = 100 μM basolateral bumetanide after 100 μM apical SEQ ID NO: 7, n = 8
[6] = 100 μM basolateral bumetanide after 100 μM apical SEQ ID NO: 7, n = 8, listed as bumetanide
[7] = 100 μM inhibitor apical for 20 minutes after 100 μM C-K4-M2GlyR, negative = inhibition

T1 sequence (P23415 278-300 limits assumed): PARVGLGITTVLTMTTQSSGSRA

In the case of `O=C(O)c1c2ccccc2cc2ccccc12` [9-AC, 9-anthracene carboxylic acid], the “block of the tetrameric channel” value (tetrameric channel) is listed as “blocked”.
With `CCCCNc1cc(C(=O)O)cc(S(N)(=O)=O)c1Oc1ccccc1` [Bumetanide, bumetanide] the “Isc after subsequent addition of bumetanide” value (M2GlyR-stimulated Isc; 100 μM basolateral bumetanide after M2GlyR, five experiments) was 1.3±0.3 μA/cm^2, the ISC after bumetanide [1, 5] was 1.4 ± 0.4 μA/cm^2 and the Rtc after bumetanide [1, 5] was 2145 ± 474 Ohms.cm^2. For the same molecule, the Vtc after bumetanide [1, 5] was -2.8±0.6 mV, the ISC after bumetanide [1, 6] was 1.4 μA/cm^2 and the Rtc after bumetanide [1, 6] was “not significant”. The “inhibition of the peptide-generated Isc” value ([1]; 100 μM basolateral bumetanide, n = 8) was 97% and the “effect on the peptide-generated current” value ([1]; 100 μM basolateral bumetanide, typical experiment FIG. 6) was “blocked the peptide-generated current”.
In the case of `O=C(O)c1ccccc1Nc1ccccc1` [DPC, diphenylamine-2-carboxylate], the “dose of DPC required to significantly inhibit the forskolin-stimulated current” value [2] is listed as 3 mM, the “DPC concentration sufficient to return Isc to the control level” value (M2GlyR-stimulated Isc; apical DPC after M2GlyR, four experiments) is listed as less than 1 mM and the “fraction of stimulated current remaining” value ([1]; 100 μM apical DPC) is listed as 68±2%. The “100 μM inhibitor (percent change) in ISC” value [1, 7] was -38.0 ± 0.8%, the “fraction of stimulated current remaining” value ([1]; 1 mM apical DPC) was 41±6% and the “fraction of stimulated current remaining” value ([1]; 3 mM apical DPC) was 26±5%.
Work on `COc1ccc(Cl)cc1C(=O)NCCc1ccc(S(=O)(=O)NC(=O)NC2CCCCC2)cc1` [Glibenclamide, glibenclamide] yielded a percent change in Isc at 100 µM ([1]; Canis lupus familiaris, MDCK, 20 min, 100 μM inhibitor apical for 20 minutes after 100 μM C-K4-M2GlyR, negative = inhibition) of -18 ± 3.1%.
For `O=C(O)c1cc([N+](=O)[O-])ccc1NCCCc1ccccc1` [NPPB, 5-nitro-2-(3-phenylpropylamino)-benzoate], the “100 μM inhibitor (percent change) in ISC” value [1, 7] was -55.2 ± 4.5%.
In the case of `O=C(O)c1cccnc1Nc1cccc(C(F)(F)F)c1` [Niflumic acid, niflumic acid], the “block of the tetrameric channel” value (tetrameric channel) is listed as “blocked” and the inhibition at 100 µM ([1]; Canis lupus familiaris, MDCK, 20 min, heading: 100 inhibitor in ISC, 100 μM inhibitor apical for 20 minutes after 100 μM C-K4-M2GlyR, negative = inhibition, read-out: 100 μM inhibitor (percent change) in ISC) is listed as 57.1 ± 3.8%.
In the case of `Cc1cccc(C)c1NC(=O)C[N+](C)(C)C` [QX-222], the “block of the tetrameric channel” value (tetrameric channel) is given as “not blocked”.
For `O=C1C[C@@H]2OCC=C3CN4CC[C@]56c7ccccc7N1[C@H]5[C@H]2[C@H]3C[C@H]46` [Strychnine], the “block of the tetrameric channel” value (tetrameric channel) is listed as “does not block”.
For `C=C[C@@]1(C)CC(=O)[C@]2(O)[C@@]3(C)[C@@H](O)CCC(C)(C)[C@@H]3[C@H](O)[C@H](OC(C)=O)[C@@]2(C)O1` [forskolin], the “fluid transport by MDCK monolayers” value (MDCK monolayers [3]) was 0.47 ± 0.05 μL/hr/cm^2 and the “increase of cAMP levels above the control” value (MDCK monolayers [4]) was 266%.
